Experimental data taken from patent publication US5858371A, “Pharmaceutical composition for the control and treatment of anorectal and colonic diseases” (Panacea Biotech Limited, priority 1997, dated 1999).

Columns and labels:
[1] = test system: granulocyte infiltration (MPO activity); experiment: Granulocyte/leucocyte infiltration (MPO activity), croton oil ear; type: in vivo, mice; conditions: for leukocyte infiltration: measured as myeloperoxidase activity; for Effect on granulocyte infiltration (MPO activity): apigenin glycoside 0.37, luteolin glycoside 0.27, indomethacin 1.26, hydrocortisone 0.41 μMol, one unit = 1 nMol/min. of tetraguaiacol at 25° C.
Method: Effect on granulocyte infiltration (MPO activity).
One unit = 1 nMol/min. of tetraguaiacol formed at 25° C. p < 0.05
The inflammation appears to naturally suppress after 30 hours.

[2] = test system: Carrageenan-induced Pedal Oedema; experiment: Carrageenan-induced pedal oedema in rats, oral extract / i.p. indomethacin; type: in vivo; conditions: for Oedema + SEM (%): N=6
Excerpt: Carrageenan-induced oedema is a biphasic event, the early hypermia being due to the release of histamine and serotonin and the delayed oedema due to the release of bradykinin and prostaglandins.
Modification of Carrageenan-induced Pedal Oedema in Rats following oral
Administration of the extract and Intraperitoneal treatment with […]

[3] = test system: Carrageenan-induced Mice Paw Oedema; experiment: Carrageenan-induced paw oedema, topical application; type: in vivo
Method: Carrageenan-induced Pedal Oedema Test:
Modification of Carrageenan-induced Mice Paw Oedema following Topical
Application of the Standardized Extract and Indomethacin.
The duration of action of topical preparation was determined by studying the effects of different concentrations of the drug on oedema over a period of 8 hr. As evident from the Table 3, the peak inhibition was observed after 3-4 hours of carrageenan injection beginning at 2 hr for the extract at lower concentrations (0.5-2.0%) and 1 hr. at 4% concentration.

[4] = test system: croton-oil induced ear oedema; experiment: Croton oil ear test (topical; oedema); type: in vivo, mice; conditions: for Effect on Oedema Development: apigenin glycoside 0.037, luteolin glycoside 0.27, indomethacin 1.26, hydrocortisone 0.41 μMol, means ± s.e.; for Activity Ratio on Molar basis: Indomethacin = 1
Excerpt: The test used was described in published literature, where apigenin 7-glucoside was used as a reference sample.
Indomethacin and hydrocortisone were used as the reference drugs.

cotton pellet granuloma = conditions: in vivo; cited from earlier work
[5] = test system: mast cell histamine secretion; conditions: cited from earlier work
neutrophil functions = conditions: cited from earlier work

O=c1cc(-c2ccc(O)cc2)oc2cc(O)cc(O)c12 [Apigenin, apigenin]
leukocyte infiltration [1]: decrease leukocyte infiltration

O=c1cc(-c2ccc(O)c(O)c2)oc2cc(O)cc(O)c12 [luteolin]
leukocyte infiltration [1]: decrease leukocyte infiltration and luteolin maintained its effect even after 18 hours of treatment

COc1ccc2c(c1)c(CC(=O)O)c(C)n2C(=O)c1ccc(Cl)cc1 [Indomethacin]
Oedema + SEM (%) ([2]; indomethacin 0.5 mg/Kg i.p., +30 min): 13.6 ± 4.0% | Oedema + SEM (%) ([2]; indomethacin 0.5 mg/Kg i.p., +60 min): 18.9 ± 4.0% | Oedema + SEM (%) ([2]; indomethacin 0.5 mg/Kg i.p., +120 min): 28.8 ± 4.2% | Oedema + SEM (%) ([2]; indomethacin 1.0 mg/Kg i.p., +30 min): 9.3 ± 2.3% | Oedema + SEM (%) ([2]; indomethacin 1.0 mg/Kg i.p., +60 min): 12.3 ± 2.2% | Oedema + SEM (%) ([2]; indomethacin 1.0 mg/Kg i.p., +120 min): 16.4 ± 1.6% | inhibition of oedema ([2]; indomethacin 1 mg/kg i.p.): 74% | Oedema + SEM (%) ([2]; indomethacin 2.0 mg/Kg i.p., +30 min): 8.2 ± 1.5% | Oedema + SEM (%) ([2]; indomethacin 2.0 mg/Kg i.p., +60 min): 12.8 ± 1.8% | inhibition of carrageenan-induced paw oedema ([3]; Indomethacin line printed at dose 1.00, +60 m, N=6): 30.3% | inhibition of carrageenan-induced paw oedema ([3]; Indomethacin line printed at dose 1.00, +120 m, N=6): 28.0% | inhibition of carrageenan-induced paw oedema ([3]; Indomethacin line printed at dose 1.00, +180 m, N=6): 46.8% | inhibition of carrageenan-induced paw oedema ([3]; Indomethacin line printed at dose 1.00, +240 m, N=6): 21.2% | inhibition of carrageenan-induced paw oedema ([3]; Indomethacin line printed at dose 1.00, +360 m, N=6): 11.5% | inhibition of carrageenan-induced paw oedema ([3]; Indomethacin line printed at dose 1.00, +480 m, N=6): 13.9% | inhibition of carrageenan-induced paw oedema ([3]; Indomethacin line printed at dose 2.00, +60 m, N=6): 18.2% | inhibition of carrageenan-induced paw oedema ([3]; Indomethacin line printed at dose 2.00, +120 m, N=6): 24.0% | inhibition of carrageenan-induced paw oedema ([3]; Indomethacin line printed at dose 2.00, +180 m, N=6): 29.0% | inhibition of carrageenan-induced paw oedema ([3]; Indomethacin line printed at dose 2.00, +240 m, N=6): 21.2% | inhibition of carrageenan-induced paw oedema ([3]; Indomethacin line printed at dose 2.00, +360 m, N=6): 9.6% | inhibition of carrageenan-induced paw oedema ([3]; Indomethacin line printed at dose 2.00, +480 m, N=6): 4.6% | inhibition ([3]; indomethacin 2 percent concentration): 41.9% | inhibition of carrageenan-induced paw oedema ([3]; last line, no dose given, +60 m): 24.2% | inhibition of carrageenan-induced paw oedema ([3]; last line, no dose given, +120 m): 26.0% | inhibition of carrageenan-induced paw oedema ([3]; last line, no dose given, +180 m): 41.9% | inhibition of carrageenan-induced paw oedema ([3]; last line, no dose given, +240 m): 36.4% | inhibition of carrageenan-induced paw oedema ([3]; last line, no dose given, +360 m): 11.5% | inhibition of carrageenan-induced paw oedema ([3]; last line, no dose given, +480 m): 10.6% | Effect on Oedema Development ([4]; 6 hours after treatment): 0.0 ± 0.1 mg | duration of antiinflammatory activity ([4]; 18 hours after treatment): lose their antiinflammatory activity 18 hours after treatment | Effect on Oedema Development ([4]; 18 hours after treatment): 3.1 ± 0.4 mg | Effect on Oedema Development ([4]; 30 hours after treatment): 0.5 ± 0.1 mg | Effect on granulocyte infiltration (MPO activity) ([1]; 6 hours after treatment): 0.0 ± 0.1 unit | Effect on granulocyte infiltration (MPO activity) ([1]; 18 hours after treatment): 10.0 ± 1.6 unit | Effect on granulocyte infiltration (MPO activity) ([1]; 30 hours after treatment): 6.8 ± 3.4 unit

C[C@@H]1O[C@@H](OC[C@H]2O[C@@H](Oc3c(-c4ccc(O)c(O)c4)oc4cc(O)cc(O)c4c3=O)[C@H](O)[C@@H](O)[C@@H]2O)[C@H](O)[C@H](O)[C@H]1O [Rutin]
Activity Ratio on Molar basis [4]: 0.28

O=c1cc(-c2ccc(O)cc2)oc2cc(O[C@@H]3O[C@H](CO)[C@@H](O)[C@H](O)[C@H]3O)cc(O)c12 [Apigenin-7-glucoside]
Activity Ratio on Molar basis [4]: 0.32

C[C@]12CCC(=O)C=C1CC[C@@H]1[C@@H]2[C@@H](O)C[C@@]2(C)[C@H]1CC[C@]2(O)C(=O)CO [Hydrocortisone]
Effect on Oedema Development ([4]; 6 hours after treatment): 0.5 ± 0.2 mg | duration of antiinflammatory activity ([4]; 18 hours after treatment): maintain their effect to a certain extent | Effect on Oedema Development ([4]; 18 hours after treatment): 0.7 ± 0.1 mg | Effect on Oedema Development ([4]; 30 hours after treatment): 0.7 ± 0.1 mg | Activity Ratio on Molar basis [4]: 14.00 | Effect on granulocyte infiltration (MPO activity) ([1]; 6 hours after treatment): 0.0 ± 0.2 unit | Effect on granulocyte infiltration (MPO activity) ([1]; 18 hours after treatment): 6.9 ± 2.1 unit | Effect on granulocyte infiltration (MPO activity) ([1]; 30 hours after treatment): 8.2 ± 2.4 unit

O=c1c(O)c(-c2ccc(O)c(O)c2)oc2cc(O)cc(O)c12 [Quercetin, quercetin]
Activity Ratio on Molar basis [4]: 0.65 | exudative and proliferative phases of cotton pellet granuloma (cotton pellet granuloma): control significantly the exudative and the proliferative phases of the cotton pellet granuloma | mast cell histamine secretion [5]: inhibits mast cell histamine secretion | neutrophil functions: release of lysosomal enzymes, oxygen consumption, generation of free radicals and chemotaxis (neutrophil functions): inhibits mast cell histamine secretion (Benett, J. P., Gomperts, B. D. and Wollenweber, E., Arzneim. Forsch., 31, 433, 1981), neutrophil functions such as release of lysosomal enzymes, oxygen consumption, generation of free radicals and chemotaxis
